The values that follow come from US20260176269A1, “ANTICOAGULANT HEPARIN OLIGOSACCHARIDE PHENYL-LINKED DIMER, PREPARATION METHOD THEREFOR AND USE THEREOF” (SHANDONG UNIVERSTIY, priority 2022, published 2026).

Series [1] can be described thus: in vivo pharmacokinetics after subcutaneous injection in rats. The following applies: rat. Here is the method: Both Fondaparinux and the phenyl-linked heparin hexasaccharide dimer I-1-1 were injected subcutaneously into Wister male rats weighing 200±20 g (n≥3) at a dose of 300 IU/kg. Blood samples were collected from the jugular vein of rats at 0, 0.5, 0.75, 1, 1.25, 1.5, 1.75, 2, 2.5, 3, 4, 8, 12 and 24 hours respectively (based on the actual blood collection time). After the blood samples were centrifuged at 5000 r/min for 15 minutes, the supernatant was taken to determine the anti-Factor Xa activity by the above method, and the residual concentrations of Fondaparinux and the phenyl-linked heparin hexasaccharide dimer I-1-1 in rats were calculated. The drug concentration vs. time curve was drawn.

Series [2] relates to Factor Xa. The series can be described thus: anti-Factor Xa activity, chromogenic substrate assay. The class given is biochemical.
A further series has as its system Factor II a. The series can be described thus: anti-Factor IIa activity, chromogenic substrate method. The class given is biochemical. Particulars: data not shown.
The test system of series [3] is Factor Xa. The series can be described thus: neutralization of anti-Factor Xa activity by protamine sulfate, chromogenic substrate method. The format is biochemical. The following applies: different concentrations of protamine sulfate. The source says: Therefore, the phenyl-linked heparin hexasaccharide dimer I-1-1 prepared by the present disclosure is a novel heparin analog whose anticoagulant activity may be neutralized by protamine sulfate.

Series [4] concerns Factor Xa. The series can be described thus: anti-Factor Xa titer against low molecular weight heparin standard curve, chromogenic substrate method. The format is biochemical.

For the compound `CO[C@H]1O[C@H](COS(=O)(=O)O)[C@@H](O[C@@H]2O[C@@H](C(=O)O)[C@@H](O[C@H]3O[C@H](COS(=O)(=O)O)[C@@H](O[C@@H]4O[C@H](C(=O)O)[C@@H](O[C@H]5O[C@H](COS(=O)(=O)O)[C@@H](O)[C@H](O)[C@H]5NS(=O)(=O)O)[C@H](O)[C@H]4O)[C@H](OS(=O)(=O)O)[C@H]3NS(=O)(=O)O)[C@H](O)[C@H]2OS(=O)(=O)O)[C@H](O)[C@H]1NS(=O)(=O)O` [Fondaparinux, reference compound], the half-life in series [1] (male, Wister, plasma, sc, 300 IU/kg) is 2.17 h.
Take `O=C(O)C1OC(OC2C(COS(=O)(=O)O)OC(OC3C(C(=O)O)OC(OC4C(COS(=O)(=O)O)OC(OC5C(C(=O)O)OC(Oc6ccc(OC7OC(C(=O)O)C(OC8OC(COS(=O)(=O)O)C(OC9OC(C(=O)O)C(OC%10OC(COS(=O)(=O)O)C(OC%11OC(C(=O)O)C(OC%12OC(COS(=O)(=O)O)C(O)C(O)C%12NS(=O)(=O)O)C(O)C%11O)C(OS(=O)(=O)O)C%10NS(=O)(=O)O)C(O)C9OS(=O)(=O)O)C(O)C8NS(=O)(=O)O)C(O)C7O)cc6)C(O)C5O)C(NS(=O)(=O)O)C4O)C(OS(=O)(=O)O)C3O)C(NS(=O)(=O)O)C2OS(=O)(=O)O)C(O)C(O)C1OC1OC(COS(=O)(=O)O)C(O)C(O)C1NS(=O)(=O)O` (centres unmarked) [Compound I-1-1]: the “IC50 value of the anti-Factor Xa activity” value in the series with Factor Xa [2] (mass concentration) is 0.02815 µg/mL. In the series with Factor Xa [2] (molar concentration), this compound showed an IC50 of 7.2 nM. Besides, in the series with Factor II a, the “anti-Factor IIa activity” value is “no significant anti-Factor Ha activity”. In addition, the “neutralization of in vitro anti-Factor Xa activity by protamine sulfate” value in the series on Factor Xa [3] is “almost completely reversed”. Moreover, the titer with Factor Xa [4] is 1,121.5 IU/mg. The same compound showed a t1/2 in series [1] (male, Wister, in vivo, sc) of 2.269 h. Besides, the “in vivo half-life (comparison in words)” value in series [1] (in vivo) is on record as “comparable to that of commercially available Fondaparinux”.
